Experimental findings from ChEMBL document CHEMBL5696442, “Discovery of type II inhibitors of TGFβ-activated kinase 1 (TAK1) and mitogen-activated protein kinase kinase kinase kinase 2 (MAP4K2)” (J Med Chem, 2015) are described below.

In assay [1] the target is Tyrosine-protein kinase Yes (Homo sapiens) (UniProt P07947). In words: Inhibition of YES ACT labeling site in human Huh-7 cell lysate at 1 uM by KiNativ Profiling analysis relative to control. The format is subcellular.
Assay [2] concerns the target T1, Inhibitor of nuclear factor kappa-B kinase subunit beta (Homo sapiens) (UniProt O14920).
T1 sequence (whole entry): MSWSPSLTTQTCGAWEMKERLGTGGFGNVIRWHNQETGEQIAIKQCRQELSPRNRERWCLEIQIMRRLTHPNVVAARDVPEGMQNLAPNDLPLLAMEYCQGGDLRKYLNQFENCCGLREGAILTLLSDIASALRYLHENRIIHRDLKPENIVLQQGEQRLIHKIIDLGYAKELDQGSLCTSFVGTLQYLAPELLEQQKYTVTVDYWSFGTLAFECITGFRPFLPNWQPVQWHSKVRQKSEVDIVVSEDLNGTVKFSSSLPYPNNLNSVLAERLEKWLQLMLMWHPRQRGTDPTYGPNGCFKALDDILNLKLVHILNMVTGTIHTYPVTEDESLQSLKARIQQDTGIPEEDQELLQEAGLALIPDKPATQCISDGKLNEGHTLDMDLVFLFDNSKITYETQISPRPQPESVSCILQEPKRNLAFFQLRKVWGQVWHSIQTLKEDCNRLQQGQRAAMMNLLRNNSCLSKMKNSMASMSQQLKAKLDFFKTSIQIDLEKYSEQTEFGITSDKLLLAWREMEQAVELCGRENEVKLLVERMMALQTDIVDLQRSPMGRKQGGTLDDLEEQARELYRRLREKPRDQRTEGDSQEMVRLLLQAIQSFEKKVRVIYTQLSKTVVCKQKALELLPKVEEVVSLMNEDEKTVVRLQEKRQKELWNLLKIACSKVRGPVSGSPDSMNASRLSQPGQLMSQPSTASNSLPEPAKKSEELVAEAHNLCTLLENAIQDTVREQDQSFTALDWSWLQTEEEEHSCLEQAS
Description: Inhibition of IKK-beta (unknown origin) at 1 uM by Ambit Kinomescan binding assay relative to control; values are per cent of control.

Assay [3] deals with T2, Serine/threonine-protein kinase TAO3 (Homo sapiens) (UniProt Q9H2K8).
T2 sequence (whole entry): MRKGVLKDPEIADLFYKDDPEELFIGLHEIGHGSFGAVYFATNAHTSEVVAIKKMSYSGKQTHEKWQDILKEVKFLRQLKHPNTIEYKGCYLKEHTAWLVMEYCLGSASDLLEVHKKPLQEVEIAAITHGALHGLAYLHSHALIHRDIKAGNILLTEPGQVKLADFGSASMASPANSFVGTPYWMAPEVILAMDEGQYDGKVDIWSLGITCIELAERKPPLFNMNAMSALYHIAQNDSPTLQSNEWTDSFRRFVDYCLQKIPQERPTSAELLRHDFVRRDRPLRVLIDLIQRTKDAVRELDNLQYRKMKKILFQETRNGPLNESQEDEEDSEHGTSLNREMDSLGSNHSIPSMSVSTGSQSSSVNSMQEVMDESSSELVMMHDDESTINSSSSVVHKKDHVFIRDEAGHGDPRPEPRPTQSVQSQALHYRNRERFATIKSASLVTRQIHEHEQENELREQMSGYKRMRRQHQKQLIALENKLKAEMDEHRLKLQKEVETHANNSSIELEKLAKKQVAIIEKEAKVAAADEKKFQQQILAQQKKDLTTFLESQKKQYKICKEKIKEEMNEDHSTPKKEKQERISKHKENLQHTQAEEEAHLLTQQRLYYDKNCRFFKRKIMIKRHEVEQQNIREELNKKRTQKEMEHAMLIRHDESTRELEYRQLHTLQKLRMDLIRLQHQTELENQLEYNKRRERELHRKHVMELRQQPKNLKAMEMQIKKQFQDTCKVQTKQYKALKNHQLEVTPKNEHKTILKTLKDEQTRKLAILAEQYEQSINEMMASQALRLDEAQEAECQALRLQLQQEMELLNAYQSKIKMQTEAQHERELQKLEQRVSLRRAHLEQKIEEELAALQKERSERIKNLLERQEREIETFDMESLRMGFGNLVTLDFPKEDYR
Description: Inhibition of TAO3 Lys2 labeling site in human A-375 cells at 5 uM by KiNativ Profiling analysis relative to control. The format is cell-based.

The target in assay [4] is T3, Mitogen-activated protein kinase kinase kinase 3 (Homo sapiens) (UniProt Q99759).
T3 sequence (whole entry): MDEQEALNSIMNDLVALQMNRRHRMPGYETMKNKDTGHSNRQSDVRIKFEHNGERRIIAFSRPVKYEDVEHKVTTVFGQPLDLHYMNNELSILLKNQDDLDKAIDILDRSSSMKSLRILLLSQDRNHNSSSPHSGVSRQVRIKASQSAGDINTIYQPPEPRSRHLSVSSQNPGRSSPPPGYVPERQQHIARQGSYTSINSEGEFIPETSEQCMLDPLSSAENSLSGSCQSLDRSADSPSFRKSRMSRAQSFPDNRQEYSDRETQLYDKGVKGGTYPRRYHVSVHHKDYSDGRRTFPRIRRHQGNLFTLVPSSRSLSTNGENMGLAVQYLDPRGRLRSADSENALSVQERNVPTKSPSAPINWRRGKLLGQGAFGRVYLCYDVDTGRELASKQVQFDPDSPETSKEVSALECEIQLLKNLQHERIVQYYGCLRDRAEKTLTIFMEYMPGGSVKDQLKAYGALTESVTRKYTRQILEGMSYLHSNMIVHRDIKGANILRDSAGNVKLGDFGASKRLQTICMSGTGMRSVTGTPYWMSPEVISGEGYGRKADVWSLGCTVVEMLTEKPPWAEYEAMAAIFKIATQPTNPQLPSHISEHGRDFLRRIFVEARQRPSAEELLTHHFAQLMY
In words: Inhibition of MAP3K3 (unknown origin) at 1 uM by Ambit Kinomescan binding assay relative to control; values are per cent of control.

Assay [5] in a line: Inhibition of Wnk1/2/3 K2 labeling site in human Huh-7 cells at 10 uM by KiNativ Profiling analysis relative to control. The settings on record: condition cancer.
In assay [6] the target is Serine/threonine-protein kinase ATR (Homo sapiens) (UniProt Q13535). Description: Inhibition of ATR ATP labeling site in human Huh-7 cells at 10 uM by KiNativ Profiling analysis relative to control. In kind it is cell-based.
Sequence of Serine/threonine-protein kinase ATR (Homo sapiens) (Q13535 whole entry, looked up): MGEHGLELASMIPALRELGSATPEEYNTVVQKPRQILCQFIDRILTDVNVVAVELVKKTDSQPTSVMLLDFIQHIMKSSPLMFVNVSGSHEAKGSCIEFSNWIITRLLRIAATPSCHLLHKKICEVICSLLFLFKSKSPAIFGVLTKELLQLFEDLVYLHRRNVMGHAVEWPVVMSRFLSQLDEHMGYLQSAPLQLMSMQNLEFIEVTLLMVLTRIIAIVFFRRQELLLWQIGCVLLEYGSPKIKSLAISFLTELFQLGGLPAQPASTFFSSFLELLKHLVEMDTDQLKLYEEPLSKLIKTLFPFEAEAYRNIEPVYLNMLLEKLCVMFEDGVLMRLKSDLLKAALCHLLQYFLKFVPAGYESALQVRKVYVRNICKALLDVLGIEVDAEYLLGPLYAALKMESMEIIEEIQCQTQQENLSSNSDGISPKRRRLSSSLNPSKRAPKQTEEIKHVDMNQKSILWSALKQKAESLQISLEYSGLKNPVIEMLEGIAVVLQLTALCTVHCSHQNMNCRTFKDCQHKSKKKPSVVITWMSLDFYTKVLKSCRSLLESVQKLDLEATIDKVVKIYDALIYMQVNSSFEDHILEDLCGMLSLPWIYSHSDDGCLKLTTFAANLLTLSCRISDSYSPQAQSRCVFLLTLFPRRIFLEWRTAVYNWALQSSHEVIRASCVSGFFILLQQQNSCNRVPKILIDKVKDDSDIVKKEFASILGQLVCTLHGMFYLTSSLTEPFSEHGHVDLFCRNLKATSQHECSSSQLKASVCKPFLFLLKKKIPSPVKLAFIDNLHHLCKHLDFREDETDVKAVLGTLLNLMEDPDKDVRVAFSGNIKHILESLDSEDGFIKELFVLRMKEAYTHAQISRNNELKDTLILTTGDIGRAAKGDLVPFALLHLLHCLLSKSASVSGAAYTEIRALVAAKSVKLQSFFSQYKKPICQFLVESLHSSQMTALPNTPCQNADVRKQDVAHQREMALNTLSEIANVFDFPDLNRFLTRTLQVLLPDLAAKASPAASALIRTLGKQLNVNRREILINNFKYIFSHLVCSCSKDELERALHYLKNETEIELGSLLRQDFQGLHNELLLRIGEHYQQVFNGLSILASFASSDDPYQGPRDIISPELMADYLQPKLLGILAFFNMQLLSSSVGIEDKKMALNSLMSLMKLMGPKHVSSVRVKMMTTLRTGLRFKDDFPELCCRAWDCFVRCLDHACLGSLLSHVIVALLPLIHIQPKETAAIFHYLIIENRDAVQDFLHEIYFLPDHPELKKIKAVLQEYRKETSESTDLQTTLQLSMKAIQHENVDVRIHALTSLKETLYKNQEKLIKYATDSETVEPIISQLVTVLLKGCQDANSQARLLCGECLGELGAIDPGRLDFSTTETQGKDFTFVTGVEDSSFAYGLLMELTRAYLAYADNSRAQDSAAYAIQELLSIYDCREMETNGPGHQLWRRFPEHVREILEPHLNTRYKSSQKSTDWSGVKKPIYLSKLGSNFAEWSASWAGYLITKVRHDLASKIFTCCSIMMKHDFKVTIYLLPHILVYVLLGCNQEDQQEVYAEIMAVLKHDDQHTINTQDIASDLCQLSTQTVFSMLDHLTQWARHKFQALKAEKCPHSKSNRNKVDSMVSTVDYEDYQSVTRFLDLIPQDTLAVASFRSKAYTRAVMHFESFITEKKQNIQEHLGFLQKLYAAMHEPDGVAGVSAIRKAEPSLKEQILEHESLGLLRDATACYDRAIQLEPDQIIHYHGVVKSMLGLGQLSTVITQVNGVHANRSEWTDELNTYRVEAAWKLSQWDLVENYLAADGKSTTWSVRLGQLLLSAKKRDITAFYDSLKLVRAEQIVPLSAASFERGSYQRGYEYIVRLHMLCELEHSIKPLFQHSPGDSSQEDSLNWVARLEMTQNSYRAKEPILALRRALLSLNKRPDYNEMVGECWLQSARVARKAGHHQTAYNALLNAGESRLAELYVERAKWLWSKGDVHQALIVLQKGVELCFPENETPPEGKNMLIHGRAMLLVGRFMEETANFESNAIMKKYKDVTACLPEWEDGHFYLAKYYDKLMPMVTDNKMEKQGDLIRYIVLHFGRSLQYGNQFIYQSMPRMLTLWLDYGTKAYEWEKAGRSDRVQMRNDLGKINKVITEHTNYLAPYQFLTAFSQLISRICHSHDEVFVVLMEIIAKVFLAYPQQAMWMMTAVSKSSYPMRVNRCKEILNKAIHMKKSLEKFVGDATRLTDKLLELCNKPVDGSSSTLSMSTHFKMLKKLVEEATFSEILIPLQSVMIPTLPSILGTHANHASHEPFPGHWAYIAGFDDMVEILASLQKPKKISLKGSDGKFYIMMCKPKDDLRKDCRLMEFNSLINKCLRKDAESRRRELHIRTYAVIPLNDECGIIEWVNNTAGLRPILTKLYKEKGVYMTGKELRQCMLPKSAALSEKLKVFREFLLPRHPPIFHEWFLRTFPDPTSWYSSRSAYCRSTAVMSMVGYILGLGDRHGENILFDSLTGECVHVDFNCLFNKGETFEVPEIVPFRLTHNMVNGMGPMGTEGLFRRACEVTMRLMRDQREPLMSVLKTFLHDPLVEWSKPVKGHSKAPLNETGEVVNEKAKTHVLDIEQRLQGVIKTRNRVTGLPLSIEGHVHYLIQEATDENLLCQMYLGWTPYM

Sequence of Tyrosine-protein kinase Yes (Homo sapiens) (P07947 2-543 limits assumed): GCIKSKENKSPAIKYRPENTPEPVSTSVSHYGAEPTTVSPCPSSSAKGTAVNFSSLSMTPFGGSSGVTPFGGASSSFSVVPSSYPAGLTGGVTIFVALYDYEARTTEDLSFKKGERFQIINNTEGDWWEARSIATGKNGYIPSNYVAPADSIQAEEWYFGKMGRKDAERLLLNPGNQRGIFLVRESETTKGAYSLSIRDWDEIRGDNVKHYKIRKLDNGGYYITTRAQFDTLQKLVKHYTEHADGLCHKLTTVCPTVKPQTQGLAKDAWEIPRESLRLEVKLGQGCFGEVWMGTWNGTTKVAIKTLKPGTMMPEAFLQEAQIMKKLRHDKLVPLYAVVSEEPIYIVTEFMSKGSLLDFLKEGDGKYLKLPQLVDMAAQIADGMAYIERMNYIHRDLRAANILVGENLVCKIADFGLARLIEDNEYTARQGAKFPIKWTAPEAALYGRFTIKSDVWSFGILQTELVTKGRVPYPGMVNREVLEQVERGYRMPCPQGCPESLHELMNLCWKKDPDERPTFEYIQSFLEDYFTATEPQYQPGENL

For orientation: inhibition means the drop in the measured response relative to a control, in per cent. A high value points to a strong effect. `CNc1cc(Oc2cc(C(=O)Nc3cc(N4CCN(C)CC4)cc(C(F)(F)F)c3)ccc2C)ncn1`: the inhibition in assay [1] is 22%.

Take `CCN1CCN(Cc2ccc(NC(=O)c3ccc(C)c(/C=C/c4cnc5[nH]ccc5c4OC)c3)cc2C(F)(F)F)CC1`: the residual activity in assay [2] was found to be 5.7%; in assay [4] it was 2%. In assay [3], this compound displayed an inhibition of 66.2%.

The compound `CCN1CCN(Cc2ccc(NC(=O)c3ccc(C)c(Oc4ccnc5[nH]ccc45)c3)cc2C(F)(F)F)CC1` yielded an inhibition at 10 µM in assay [5] of 7.8%. Also, the inhibition in assay [6] is 19.8%.
